Measured values reported in patent US12564575B2 (priority 2019, dated 2026).
“Also recorded” adds a separate entry of the source.

Tests used:
[1] = system: LPS/OA-induced lung injury and ARDS; assay type: in vivo, C57BL/6 mice
LPS/OA induced ARDS = system: LPS/OA induced ARDS; set-up: species or system C57BL/6 mice; conditions: mouse, in vivo, po, 10 mg/kg
[2] = system: vero epithelial cells (CCL-81); experiment: ECIS study of vero epithelial cells exposed to snake venom; assay type: cell-based, African green monkey; conditions: for cellular function and cell-cell junction integrity measured by resistance: C. scutulatus whole venom (high sPLA2 content)
[3] = system: venom MP (Sistrurus venom metalloprotease activity); assay type: biochemical, Viper, elapid and colubrid venom; conditions: FIG. 4, Table 2; comparison of hydroxamate metalloprotease inhibitors
Streptococcus suis = experiment: Juvenile pig with Streptococcus suis infection during experimental envenoming study; assay type: in vivo, Sus domesticus; conditions: S. suis infected juvenile pig; LY315920 plus single non-curative antibiotic dose; euthanized as scheduled

| SMILES | clinical appearance of treated animals ([1]; […], 24 and 48 hours, versus lethargic, tachypneic controls) | lung sound amplitude, distance from maximum (audiogram) ([1]; […], recordings at 24 hours, control −29.7 db) [db] | difference in lung sound amplitude between treated and untreated mice ([1]; […], treated quieter) [dB] | alveolar damage (ATS workshop lung injury score) ([1]; mouse, in vivo) | damage from LPS/OA induced ARDS (histopathology) (LPS/OA induced ARDS) | cellular function and cell-cell junction integrity measured by resistance [2] | potency (IC50) against venom metalloprotease activity, in words [3] | difference in response between the two varespladib doses ([2]; 0.05 mg/ml versus 0.01 mg/mL) | inter-cellular attachments (resistance) and cell viability (capacitance) ([2]; C. scutulatus and Daboia russelli (Pakistan) venoms, varespladib 0.05 mg/ml and 0.01 mg/mL) | survival (Streptococcus suis) [h] |
| --- | --- | --- | --- | --- | --- | --- | --- | --- | --- | --- |
| C[C@H](Cc1cccc(-c2cc(Cc3ccccc3)ccc2C(N)=O)c1)C(=O)O [AZD2716, (R)-3-(5′-benzyl-2′-carbamoyl-[1,1′-biphenyl]-3-yl)-2-methylpropanoic acid] | bright, alert and responsive | −38.5 | ~10 | prevented and rescued; also recorded: protects and reduces alveolar damage | rescue and reduce damage | preserves cellular function and cell-cell junction integrity |  |  |  |  |
| CNC(=O)[C@@H](NC(=O)[C@H](CC(C)C)[C@H](O)C(=O)NO)C(C)(C)C [marimastat] |  |  |  |  |  |  | good to excellent performance |  |  |  |
| CCc1c(C(=O)C(N)=O)c2c(OCC(=O)O)cccc2n1Cc1ccccc1 [varespladib] |  |  |  |  |  | preserves cellular function and cell-cell junction integrity |  | no significant difference | recovers and stabilizes inter-cellular attachments (resistance) and cell viability (capacitance) | > 100 |
